As a reminder, the IC50 is the midpoint of a concentration-inhibition curve.

Experimental findings from BindingDB's records for doi:10.1021/jm00001a001 (Biochem Therapeutic, 1995) are described below.

In this assay the target is Reverse transcriptase/RNaseH (Human immunodeficiency virus 1, UniProt Q72547). Nature of the assay: Ability to inhibit the HIV-1 reverse transcriptase in cord blood mononuclear cells.

`Cc1cn([C@H]2C[C@H](N=[N+]=[N-])[C@@H](CO)O2)c(=O)[nH]c1=O` [1-((2R,4S,5S)-4-Azido-5-hydroxymethyl-tetrahydro-furan-2-yl)-5-methyl-1H-pyrimidine-2,4-dione] displayed an IC50 of 30 nM.
